From patent publication US5429774A, “Benzopyran compounds” (Transitions Optical, Inc., priority 1994, dated 1995)

Experiment: photochromic response on an optical bench in ethyl cellulose resin (lambda max, sensitivity, saturation optical density, bleach rate)
Format: physicochemical
Conditions: for Δ OD @ SAT (saturation optical density): UV exposure 15 minutes; for Δ OD @ SAT (saturation optical density) / Sensitivity Δ OD/MIN / Bleach rate T 1/2: ethyl cellulose resin; for Lambda max Band A / Lambda max Band B: activated (colored) form, in ethyl cellulose resin; for Sensitivity Δ OD/MIN: first five (5) seconds of UV exposure, expressed on a per minute basis, 75° F. (23.9° C.); for Bleach rate T 1/2: time to one half the highest absorbance at room temperature (72° F., 22.2° C.) after removal of activating light; for sensitivity versus Comparative Examples (in words): comparison of Table 1 results
Experimental: The photochromic compounds prepared in the Examples and the Comparative Examples were incorporated into an ethyl cellulose resin by the following procedure. About 30 milligrams of the photochromic compound was added to 2.0 grams of a 10 weight percent ethyl cellulose solution in toluene. The photochromic compound was dissolved by warming and stirring on a steam bath. Approximately 2.0 grams of the resultant solution was deposited on the edge of a 75 by 25 millimeter (mm) glass slide. Using a draw down bar, a 0.2 mm layer of photochromic resin solution was placed evenly on the slide and permitted to dry.
The photochromic test samples prepared in Part A were tested for photochromic response rates on an optical bench. Prior to testing on the optical bench, the photochromic test samples were exposed to 365 nanometer (nm) ultraviolet light for about 15 minutes to activate the photochromic compounds and then placed into a 76° C. oven for about 15 minutes to bleach or inactivate the photochromic compounds. The test samples were then cooled to room temperature, exposed to fluorescent room lighting for at least 2 hours and then kept covered for at least 2 hours prior to testing on an optical bench maintained at 75° F. (23.9° C.).
The optical bench comprises a 150 watt Xenon arc lamp, a tungsten lamp, power supplies for both lamps, condensing lenses as needed to maintain collimated light beams from both lamps, a remote controlled shutter, a copper sulfate bath acting as a heat sink for the arc lamp, a Schott WG-320 nm cut-off filter which removes short wavelength radiation, neutral density filter(s), a sample holder in which the sample to be tested is inserted, a photopic filter, light detector, and radiometer assembly, a strip chart recorder, and a means for maintaining the alignment of the aforestated components during testing.
Change in optical density (ΔOD) of a sample was determined by inserting a photochromic test sample in the bleached state into the sample holder, adjusting the transmittance scale to 100%, opening the shutter from the Xenon lamp to provide ultraviolet radiation to change the sample from the bleached state to an activated (darkened) state, measuring the transmittance through the sample. The transmittance was measured by directing a beam of light from the tungsten lamp at a small angle normal to the surface of the sample, through the sample, and to a photopic filter, light detector and radiometer assembly. The photopic filter passes wavelengths such that the detector mimics the response of the human eye and produces output signals that are processed by the radiometer. The change in optical density was calculated according to the formula Δ OD=log(100/% Ta) where % Ta is the percent transmittance in the activated state and the logarithm is to the base 10.
The Δ OD/Min, which represents the sensitivity of the photochromic compound's response to UV light, was measured over the first five (5) seconds of UV exposure, then expressed on a per minute basis. The saturation optical density (OD) was taken under identical conditions as the Δ OD/Min, except UV exposure was continued for 15 minutes. The lambda max value, which is the maximum absorption of the activated (colored) form of the photochromic compound in ethyl cellulose resin, may occur at one or two wavelengths reported as Band A and Band B in Table 1. The Bleach Rate T 1/2 is the time interval in seconds for the absorbance of the activated form of the benzopyran in the test sample to reach one half the highest absorbance at room temperature (72° F., 22.2° C.) after removal of the source of activating light.

| Molecule | Δ OD @ SAT (saturation optical density) | Lambda max Band A | Sensitivity Δ OD/MIN [OD/MIN] | Bleach rate T 1/2 [min] | Lambda max Band B | sensitivity versus Comparative Examples (in words) |
| --- | --- | --- | --- | --- | --- | --- |
| 3-(2-fluorophenyl)-3-(benzofur-2-yl)-3H-benzo(b)thieno[3,2-f]-1-benzopyran [Example 7] | 0.27 | 482 | 0.27 | 10.3 |  |  |
| C1=CC(c2ccccc2)(c2ccccc2)Oc2ccc3oc4ccccc4c3c21 [Comparative Example 2, 3,3-diphenyl-(3H)-benzo(b)furo[3,2-f]-1-benzopyran, reference compound] | 0.18 | 430 | 0.42 | 1.42 | 522 |  |
| C1=CC(c2ccccc2)(c2cc3ccccc3s2)Oc2ccc3oc4ccccc4c3c21 (stereo not drawn) [Example 8, 3-phenyl-3-(benzothiophen-2-yl)-3H-benzo(b)furo[3,2-f]-1-benzopyran] | 0.23 | 476 | 0.25 | 3.77 | 545 |  |
| COc1ccccc1C1(c2cc3ccccc3o2)C=Cc2c(ccc3sc4ccccc4c23)O1 (stereo not drawn) [Example 10, 3-(2-methoxyphenyl)-3-(benzofur-2-yl)-3H-benzo(b)thieno[3,2-f]-1-benzopyran] | 0.98 | 482 | 0.66 | > 20 | 532 | greater than Comparative Example 2 |
| C1=CC(c2ccccc2)(c2cc3ccccc3o2)Oc2ccc3oc4ccccc4c3c21 (stereo not drawn) [Example 4, 3-phenyl-3-(benzofur-2-yl)-3H-benzo(b)furo[3,2-f]-1-benzopyran] | 0.34 | 453 | 0.26 | 5.18 | 482 |  |
| C1=CC(c2ccccc2)(c2csc3ccccc23)Oc2ccc3ccccc3c21 (stereo not drawn) [Example 5, 3-phenyl-3-(benzothiophen-3-yl)-3H-naphtho[2,1-b]pyran] | 0.34 | 440 | 0.62 | 1.55 |  | greater than Comparative Example 2 |
| COc1ccccc1C1(c2cc3ccccc3o2)C=Cc2cc3oc4ccccc4c3cc2O1 (stereo not drawn) [Example 6, 2-(2-methoxyphenyl)-2-(benzofur-2-yl)-2H-benzo(b)furo[2,3-g]-benzopyran] | 0.86 | 448 | 0.49 | > 20 | 507 | greater than Comparative Example 2 |
| C1=CC(c2ccccc2)(c2cc3ccccc3o2)Oc2ccc3ccccc3c21 (stereo not drawn) [Example 1, 3-phenyl-3-(benzofur-2-yl)-3H-naphtho[2,1-b]pyran] | 0.95 | 467 | 1.15 | 5.75 |  | greater than Comparative Examples 1 and 2 |
| C1=CC(c2ccccc2)(c2csc3ccccc23)Oc2ccc3oc4ccccc4c3c21 (stereo not drawn) [Example 9, 3-phenyl-3-(benzothiophen-3-yl)-3H-benzo(b)furo[3,2-f]-1-benzopyran] | 0.18 | 444 | 0.22 | 2.97 | 515 |  |
| Fc1ccccc1C1(c2cc3ccccc3o2)C=Cc2c(ccc3ccccc23)O1 (stereo not drawn) [Example 2, 3-(2-fluorophenyl)-3-(benzofur-2-yl)-3H-naphtho[2,1-b]pyran] | 0.84 | 462 | 0.59 | > 30 |  | greater than Comparative Example 2 |
| C1=CC(c2ccccc2)(c2ccccc2)Oc2ccc3ccccc3c21 [Comparative Example 1, 3,3-diphenyl-3H-naphtho [2,1-b]pyran, reference compound] | 0.31 | 432 | 0.87 | 0.533 |  |  |
| C1=CC(c2ccccc2)(c2cc3ccccc3s2)Oc2ccc3ccccc3c21 (stereo not drawn) [Example 3, 3-phenyl-3-(benzothiophen-2-yl)-3H-naphtho[2,1-b]pyran] | 0.52 | 460 | 0.76 | 2.03 |  | greater than Comparative Example 2 |
